Laboratory results reported in ChEMBL document CHEMBL3045594, “Synthesis and evaluation of substituted 5-(3-chloro-2-oxo-4-phenylazetidin-1-ylamino)pyrimidine-2,4,6(1H,3H,5H)-triones against pentylenetetrazole-induced convulsant in mice” (Med Chem Res, 2012).

Legend:
[1] = Acute toxicity in Mus musculus (mouse) assessed as mortality at 1000 mg/kg, ip; type: organism-based; parameters: dose 1000 mg/kg, route intraperitoneal; settings: in vivo, read-out: Activity
Mus musculus [2] = assay: Anticonvulsant activity in Mus musculus (mouse) subcutaneous PTZ-induced seizure assessed as malondialdehyde level at 20 mg/kg, ip administered 30 min before PTZ challenge by TBARS assay; type: functional
Mus musculus [3] = assay: Anticonvulsant activity in Mus musculus (mouse) assessed as protection against subcutaneous PTZ-induced seizure at 20 mg/kg, ip administered 30 min before PTZ challenge; type: functional
Mus musculus [4] = assay: Acute toxicity in Mus musculus (mouse) assessed as behavioral changes at 1000 mg/kg, ip; type: organism-based; parameters: dose 1000 mg/kg, route intraperitoneal; settings: in vivo
Mus musculus [5] = assay: Anticonvulsant activity in Mus musculus (mouse) subcutaneous PTZ-induced seizure assessed as carbonyl protein level at 20 mg/kg, ip administered 30 min before PTZ challenge; type: functional
Mus musculus [6] = assay: Anticonvulsant activity in Mus musculus (mouse) assessed as protection against subcutaneous PTZ-induced seizure at 40 mg/kg, ip administered 30 min before PTZ challenge; type: functional
Mus musculus [7] = assay: Anticonvulsant activity in Mus musculus (mouse) subcutaneous PTZ-induced seizure assessed as reduced glutathione level per mg of protein at 20 mg/kg, ip administered 30 min before PTZ challenge by Ellman method; type: functional
Mus musculus [8] = assay: Anticonvulsant activity in Mus musculus (mouse) subcutaneous PTZ-induced seizure assessed as carbonyl protein level at 40 mg/kg, ip administered 30 min before PTZ challenge; type: functional
Mus musculus [9] = assay: Anticonvulsant activity in Mus musculus (mouse) subcutaneous PTZ-induced seizure assessed as reduced nitrite level per mg of protein at 20 mg/kg, ip administered 30 min before PTZ challenge by Griess reaction; type: functional
Mus musculus [10] = assay: Anticonvulsant activity in Mus musculus (mouse) subcutaneous PTZ-induced seizure assessed as reduced glutathione level per mg of protein at 40 mg/kg, ip administered 30 min before PTZ challenge by Ellman method; type: functional
Mus musculus [11] = assay: Acute toxicity in Mus musculus (mouse) at 100 to 200 mg/kg, ip; type: organism-based; parameters: dose 100-200 mg/kg, route intraperitoneal; settings: in vivo
Mus musculus [12] = assay: Anticonvulsant activity in Mus musculus (mouse) subcutaneous PTZ-induced seizure assessed as malondialdehyde level at 40 mg/kg, ip administered 30 min before PTZ challenge by TBARS assay; type: functional
Mus musculus [13] = assay: Anticonvulsant activity in Mus musculus (mouse) subcutaneous PTZ-induced seizure assessed as reduced nitrite level per mg of protein at 40 mg/kg, ip administered 30 min before PTZ challenge by Griess reaction; type: functional
Mus musculus [14] = assay: Anticonvulsant activity in Mus musculus (mouse) subcutaneous PTZ-induced seizure assessed as malondialdehyde level at 80 mg/kg, ip administered 30 min before PTZ challenge by TBARS assay; type: functional
Mus musculus [15] = assay: Anticonvulsant activity in Mus musculus (mouse) subcutaneous PTZ-induced seizure assessed as reduced glutathione level per mg of protein at 80 mg/kg, ip administered 30 min before PTZ challenge by Ellman method; type: functional
Mus musculus [16] = assay: Anticonvulsant activity in Mus musculus (mouse) subcutaneous PTZ-induced seizure assessed as reduced nitrite level per mg of protein at 80 mg/kg, ip administered 30 min before PTZ challenge by Griess reaction; type: functional
Mus musculus [17] = assay: Anticonvulsant activity in Mus musculus (mouse) assessed as protection against subcutaneous PTZ-induced seizure at 80 mg/kg, ip administered 30 min before PTZ challenge; type: functional
Mus musculus [18] = assay: Anticonvulsant activity in Mus musculus (mouse) subcutaneous PTZ-induced seizure assessed as carbonyl protein level at 80 mg/kg, ip administered 30 min before PTZ challenge; type: functional

SMILES | mortality [1] | Activity (Mus musculus [2]) | Activity (Mus musculus [3]) | Activity (Mus musculus [4]) | Activity (Mus musculus [5]) | Activity (Mus musculus [6]) | Activity (Mus musculus [7]) | Activity (Mus musculus [8]) | Activity (Mus musculus [9]) | Activity (Mus musculus [10]) | Activity (Mus musculus [11]) | Activity (Mus musculus [12]) | Activity (Mus musculus [13]) | Activity (Mus musculus [14]) | Activity (Mus musculus [15]) | Activity (Mus musculus [16]) | Activity (Mus musculus [17]) | Activity (Mus musculus [18])
COc1ccc(C2C(Cl)C(=O)N2NC2C(=O)NC(=O)NC2=O)cc1 (centres undefined) | 70% | 47.11 nmol/mg | 33% | Toxic | 27.53 nmol/mg | 66% | 0.043 µmol | 25.94 nmol/mg | 0.47 µmol | 0.047 µmol | Non-toxic | 42.91 nmol/mg | 0.49 µmol |  |  |  |  | 
O=C1NC(=O)C(NN2C(=O)C(Cl)C2c2ccccc2)C(=O)N1 (centres undefined) | 70% | 48.36 nmol/mg | 16% | Toxic | 30.74 nmol/mg | 16% | 0.031 µmol | 29.61 nmol/mg | 0.46 µmol | 0.036 µmol | Non-toxic | 44.04 nmol/mg | 0.48 µmol |  |  |  |  | 
COc1cc(C2C(Cl)C(=O)N2NC2C(=O)NC(=O)NC2=O)ccc1O (centres undefined) | 70% | 35.19 nmol/mg | 66% | Toxic | 21.68 nmol/mg | 83% | 0.081 µmol | 20.48 nmol/mg | 0.53 µmol | 0.084 µmol | Non-toxic | 30.68 nmol/mg | 0.54 µmol |  |  |  |  | 
CCCC(CCC)C(=O)[O-].[Na+] [VALPROATE SODIUM] |  |  |  |  |  |  |  |  |  |  |  |  |  | 28.13 nmol/mg | 0.089 µmol | 0.54 µmol | 100% | 19.06 nmol/mg
